Results: patent US11882828B2, “Mosquito vector control compositions, methods and products utilizing same” (priority 2015, dated 2024)

What was measured:
An. Gambiae Kisumu sus = assay: Example B5: bottle based cross resistance study (CDC bottle assay); format: in vivo; conditions: Kisumu sus
Experimental: (§1) Based on the “CDC bottle assay” (described at http://www.cdc.gov/malaria/resources/pdf/fsp/ir_manual/ir_cdc_bioassay_en.pdf) 1 ml of ethanol containing a test compound at a defined concentration was added to a 250 ml glass bottle and the bottles were placed on a rolling table to coat the inner surfaces as the solvent evaporated. Once dry, twenty five non-blood fed adult female mosquitoes of the appropriate species and strains (each three day old) were aspirated from the stock culture and gently blown into the exposure bottles. The lid of the bottle was replaced and the bottle placed upright out of direct sun light under standard culture conditions, nominally 28C and 60-80% relative humidity.
(§2) A stopwatch was started, and the assessment of the knock-down were made after 15 minutes and 60 minutes. A mosquito was said to be knocked down if it was unable to stand, following the CDC definition. The bottles were replaced in an upright position when not being assessed.
(§3) After one hour the mosquitoes were carefully removed from the bottle with an aspirator and placed in a recovery cup. The mosquitoes were supplied with a 10% sucrose solution on a cotton wool bung, and stored under culture conditions. Assessments of the mortality were made after 24 hours.
(§4) Each treatment was replicated a minimum of four times, with the mean knockdown or mortality recorded. In each study, a set of bottles was infested with a known insecticide susceptible strain of mosquitoes from the same genera as the resistant strains.

VK7 = assay: as above; format: in vivo; conditions: Anopheles coluzzii, 24 h, Table B5c, after 24 hours
Experimental: as §1, §2, §3, §4

FUMOZ = assay: as above; format: in vivo; conditions: Anopheles funestus, 24 h, Table B5c; 25 ppm; after 24 hours; FUMOZ
Experimental: as §1, §2, §3, §4

An. stephensi [1] = assay: as above; format: in vivo
Experimental: as §1, §2, §3, §4

An. Gambiae Tiassalé [2] = assay: as above; format: in vivo
Experimental: as §1, §2, §3, §4

Anopheles stephensi [3] = assay: Example B7: evaluation of insecticide impregnated polymer surfaces; format: in vivo; conditions: AI content 2 wt %; for mortality: 24 hours after exposure; for knock-down: after one hour
Outline: (§5)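 Methoxyacrylates were melt-blended into LDPE, HDPE or PP and moulded into sheets about 0.1 mm thick. Ten 3–5-day-old non-blood-fed adult females were held 24 h on 10% sucrose, then confined in a Petri dish under the treated sheet for 1 h. Knockdown was scored at 1 h and mortality 24 h after exposure.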

Aedes aegypti [4] = assay: as above; format: in vivo; conditions: AI content 2 wt %, polymer 4 to 6 weeks old; for mortality: 24 hours after exposure; for knock-down: after one hour
Outline: as §5

Anopheles stephensi [5] = assay: whole plant or invertebrate; conditions: Anopheles stephensi, 48 h
Outline: (§6)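 Non-blood-fed adult females (2–5 days old), ten per well, were placed on dried ethanol deposits of the test compound at a defined concentration and fed 10% sucrose. Mortality was scored at 48 hours as the mean of two replicates.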

Aedes aegypti [6] = assay: whole plant or invertebrate; conditions: Aedes aegypti, 48 h
Outline: as §6

Ae. Aegypti New Orleans = assay: Example B4: cross resistance study, 6-well plate; format: in vivo
Experimental: (§7) In each study, a set of plates were infested with a known insecticide susceptible strain of mosquitoes from the same genera as the resistant strains.
(§8) Assessment of the knockdown after 60 minutes and mortality after 24 hours was carried out. Each treatment was replicated a minimum of four times, with the mean knockdown or mortality recorded.
(§9) A comparison of the knockdown and mortality of the resistant strain of mosquitoes was made to that of the susceptible to identify evidence of cross resistance.

An. Arabiensis Moz sus = assay: Example B4: cross resistance study, 6-well plate; format: in vivo
Experimental: as §7, §8, §9

An. Gambiae Kisumu rdl = assay: Example B4: cross resistance study, 6-well plate; format: in vivo
Experimental: as §7, §8, §9

An. stephensi [7] = assay: Example B4: cross resistance study, 6-well plate; format: in vivo
Experimental: as §7, §8, §9

Ae. aegypti Caymon = assay: Example B4: cross resistance study, 6-well plate; format: in vivo
Experimental: as §7, §8, §9

An. Gambiae Tiassalé [8] = assay: Example B4: cross resistance study, 6-well plate; format: in vivo
Experimental: as §7, §8, §9

CO/C=C(/C(=O)OC)c1ccccc1Oc1nc(C(C)(C)C)ns1 [Compound 7, Methyl (E)-2-[2-[(3-tert-butyl-1,2,4-thiadiazol-5-yl)oxy]phenyl]-3-methoxy-prop-2-enoate]
Knockdown (%) at 15 mins (An. Gambiae Kisumu sus; 20 ppm, bottle): 100%
Knockdown (%) at 60 mins (An. Gambiae Kisumu sus; 20 ppm, bottle): 100%
mortality at 20 ppm (An. Gambiae Kisumu sus; Anopheles gambiae, 20 ppm, bottle, one hour exposure, after 24 hours): 99%
mortality at 25 ppm (An. Gambiae Kisumu sus; Anopheles gambiae, 24 h, Table B5c, 25 ppm, after 24 hours): 97%
mortality at 25 ppm (VK7): 19%
mortality at 25 ppm (FUMOZ): 20%
Knockdown (%) at 15 mins (An. stephensi [1]; 20 ppm, bottle, An. stephensi): 37%
Knockdown (%) at 60 mins (An. stephensi [1]; 20 ppm, bottle, An. stephensi): 100%
mortality at 20 ppm (An. stephensi [1]; Anopheles stephensi): 100%
Knockdown (%) at 15 mins (An. Gambiae Tiassalé [2]; 20 ppm, bottle, Tiassalé): 70%
Knockdown (%) at 60 mins (An. Gambiae Tiassalé [2]; 20 ppm, bottle, Tiassalé): 97%
mortality at 20 ppm (An. Gambiae Tiassalé [2]; Anopheles gambiae): 95%
mortality (Anopheles stephensi [3]; HDPE, polymer 4 to 6 weeks old): 87%
knock-down (Anopheles stephensi [3]; HDPE, polymer 4 to 6 weeks old): 93%
mortality (Anopheles stephensi [3]; HDPE, polymer 6 to 8 weeks old): 87%
knock-down (Anopheles stephensi [3]; HDPE, polymer 6 to 8 weeks old): 100%
mortality (Anopheles stephensi [3]; LDPE, polymer 4 to 6 weeks old): 97%
knock-down (Anopheles stephensi [3]; LDPE, polymer 4 to 6 weeks old): 100%
mortality (Anopheles stephensi [3]; LDPE, polymer 6 to 8 weeks old): 100%
knock-down (Anopheles stephensi [3]; LDPE, polymer 6 to 8 weeks old): 87%
mortality (Anopheles stephensi [3]; PP, polymer 4 to 6 weeks old): 87%
knock-down (Anopheles stephensi [3]; PP, polymer 4 to 6 weeks old): 93%
mortality (Anopheles stephensi [3]; PP, polymer 6 to 8 weeks old): 77%
knock-down (Anopheles stephensi [3]; PP, polymer 6 to 8 weeks old): 100%
mortality (Aedes aegypti [4]; HDPE): 47%
knock-down (Aedes aegypti [4]; HDPE): 83%
mortality (Aedes aegypti [4]; LDPE): 97%
knock-down (Aedes aegypti [4]; LDPE): 100%
mortality (Aedes aegypti [4]; PP): 23%
knock-down (Aedes aegypti [4]; PP): 67%
mortality at 5 ppm (Anopheles stephensi [5]): 95%
mortality at 5 ppm (Aedes aegypti [6]): 78%
Knockdown (Ae. Aegypti New Orleans; 2.50 ppm, after 60 minutes, New Orleans): 38%
mortality at 2.5 ppm (Ae. Aegypti New Orleans; Aedes aegypti, 24 h): 100%
Knockdown (An. Arabiensis Moz sus; 2.50 ppm, after 60 minutes, Moz sus): 95%
mortality at 2.5 ppm (An. Arabiensis Moz sus; Anopheles arabiensis, 24 h): 100%
Knockdown (An. Gambiae Kisumu rdl; 2.50 ppm, after 60 minutes, Kisumu rdl): 90%
mortality at 2.5 ppm (An. Gambiae Kisumu rdl; Anopheles gambiae, 24 h): 100%
Knockdown (An. stephensi [7]; 2.50 ppm, after 60 minutes, An. stephensi): 40%
mortality at 2.5 ppm (An. stephensi [7]; Anopheles stephensi, 24 h): 100%
Knockdown (Ae. aegypti Caymon; 2.50 ppm, after 60 minutes, Caymon): 52%
mortality at 2.5 ppm (Ae. aegypti Caymon; Aedes aegypti, 24 h): 28%
Knockdown (An. Gambiae Tiassalé [8]; 2.50 ppm, after 60 minutes, Tiassalé): 90%
mortality at 2.5 ppm (An. Gambiae Tiassalé [8]; Anopheles gambiae, 24 h): 85%
